The values that follow come from article PMC3638593, “1,4-dihydroxy-2-naphthoic Acid Induces Apoptosis in Human Keratinocyte: Potential Application for Psoriasis Treatment” (Evidence-based Complementary and Alternative Medicine : eCAM, 2013).

Where “and” joins values, the source holds several entries; their conditions need not be identical. Identical values can stand only once. Like-named read-outs stand apart in the source and are kept apart here. * marks the point of attachment. Cbz = O=C(OCc1ccccc1)*; CH2F = FC*

Holding throughout (type): cell-based, human
Series [1] concerns HaCaT cells. The series can be described thus: Proliferation assay (sulphorhodamine B) on HaCaT. The conditions noted are these: Homo sapiens, read-out: IC50 on growth. The text has this: (§1) The spontaneously immortalized human epidermal keratinocyte HaCaT cells were purchased from China Centre for Type Culture Collection, Wuhan, China. The human foreskin fibroblast Hs-68 cells were purchased from the American Type Culture Collection (Manassas, VA, USA). The human undifferentiated keratinocyte NCTC 2544 cells were provided by Interlab Cell Line Collection (Genoa, Italy) and the immortalized human epidermal melanocyte PIG1 cells were a gift from Dr Caroline Le Poole (Loyola University Chicago, Maywood, IL, USA). HaCaT and Hs-68 cells were maintained in DMEM, NCTC 2544 in RPMI 1640 and PIG1 cells in Medium 254 with Human Melanocyte Growth Supplement-2, respectively. All cells were cultured in complete medium containing 10% FBS, 100 μg/mL of streptomycin, and 100 U/mL of penicillin (Gibco Laboratories) at 37°C in a humidified atmosphere of 5% CO2. Cell culture experiments were carried out at 60–80% confluent.
(§2) The ethyl acetate extract (EA) of Rubia cordifolia L. was isolated as described. 1,4-dihydroxy-2-naphthoic acid (98%), dithranol (≥90%), and EA were dissolved in DMSO as stock. All cells were seeded and treated with various concentrations of DHNA, dithranol or EA. After treatment, cells were fixed with cold 50% trichloroacetic acid and incubated 1 h at 4°C. Cell was then washed with deionized water, air-dried, and stained with 0.4% (w/v) sulphorhodamine B for 30 min at room temperature. Unincorporated dye was removed with 1% acetic acid wash and the cell was again air-dried. Incorporated dye was then solubilized in 10 mM Tris base and absorbance was measured at 565/690 nm using a Sunrise microplate spectrophotometer (Tecan, Switzerland). IC50 were determined using GraphPad Prism 5.0 (GraphPad Software, San Diego, CA, USA).

The test system of the next series is NCTC 2544 cells. In words: Proliferation assay (sulphorhodamine B) on NCTC 2544. The conditions noted are these: Homo sapiens, read-out: IC50 on growth.
Text: as §1, §2

Series [2] has as its system IL-1α release from NCTC 2544 cells. In words: IL-1α release assay (ELISA). The procedure: NCTC 2544 cells were seeded and treated with various concentrations of DHNA or dithranol for 72 h. After incubation, the microplate was centrifuged and conditioned medium was collected to determine the extracellular IL-1α (IL-1α release) using an IL-1α ELISA kit (Diaclone Research, France). All other steps were then according to the manufacturer's protocol. Results were expressed in pg/mL.

Series [3] deals with HaCaT cells. In words: Annexin V/propidium iodide staining, flow cytometry. The conditions noted are these: 40 μM pretreatment 1 h, then DHNA 24 h. The procedure: After DHNA treatment, HaCaT cells were resuspended in annexin V binding buffer (10 mM HEPES, 140 mM NaCl, and 2.5 mM CaCl2, pH 7.4) and then incubated with FITC-conjugated annexin V (Biosource International, Inc., USA), and 0.5 μg/mL propidium iodide (PI) for 15 min at room temperature in the dark. Cells were analyzed on a FACSCanto flow cytometer (BD Biosciences, San Jose, CA, USA) immediately and then analyzed using WinMDI 2.9 (developed by Dr. J. Trotter, Scripps Institute, La Jolla, CA, USA). The total number of early (FITC+/PI−) and late (FITC+/PI+) apoptotic cells was assessed. In another experiment, HaCaT cells were preincubated with 40 μM pan-caspase inhibitor Z-VAD-FMK (BD Pharmingen, San Diego, CA, USA) for 1 h before exposure to DHNA.

As to `O=C1c2c(O)cccc2Cc2cccc(O)c21` [Dithranol, dithranol, reference compound], the IC50 with HaCaT cells [1] (incubation 48 h) was 24.8 µM and 5.6 µg/mL; in the series with HaCaT cells [1] (incubation 72 h), 9.39 µM and 2.12 µg/mL; in the series with NCTC 2544 cells (NCTC 2544, incubation 48 h), 6.21 µM and 1.41 µg/mL; in the series on NCTC 2544 cells (NCTC 2544, incubation 72 h), 3.81 µM and 0.86 µg/mL. Also, the “IL-1α release at concentrations below IC50 on NCTC 2544” value in series [2] (2 to 3 μM or 0.45 to 0.68 μg/mL, 72 h) is given as “readily induced the release of this cytokine”. Moreover, in series [2] (2 to 8 μM (0.45 to 1.81 μg/mL), 72 h), the “IL-1α release versus vehicle control” value was “induced significant release of this cytokine at all concentrations tested”. For the same compound, the “concentration at which IL-1α release is significantly induced” value in series [2] (NCTC 2544, 72 h, versus vehicle control) was 2 μM and 0.45 μg/mL.

As for “Cbz-Val-Ala-Asp-CH2F [reference compound]”, the “effect of pan-caspase inhibitor on DHNA-induced apoptosis” value in the series with HaCaT cells [3] was “partially blocked”.
